AC50 data for 79 molecules are collected here from PubChem BioAssay AID977621 (Broad Institute, 2014).

The assay deals with E. coli wild-type GFP strain growth, fluorescence, 24 h. The experiment in a line: growth inhibition of wild-type GFP E. coli, dose response, H69 mutant RFP, cherry-pick (AID 977621).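 Further: wild-type GFP and H69 mutant RFP strains grown together 50/50 in each well.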
[1] abbreviates: E. coli mixed culture, 24 h, measured here: total growth OD600, test 2.
[2] abbreviates: measured here: total growth OD600, test 2.

Records with an inconclusive call do not appear. The source made the active and inactive calls.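 How the source made its calls: active means Wild-type ribosome reporter drop at least double the humanized mutant ribosome reporter drop, growth loss under a set limit; inconclusive means no clear call, values can overlap the other calls; inactive means the rest.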 Some results are limits rather than exact numbers.

What is called AC50 is the concentration at which the activity in the assay is half-maximal.

As to `O=C(NCCc1ccccn1)c1cccc(S(=O)(=O)N2CCc3ccccc32)c1`, the AC50 was > 100 µM (inactive).

Turning to `CC1(C(=O)NS(=O)(=O)c2cccc(C#N)c2)CCN1C(=O)C1(c2ccc(Cl)cc2)CCC1` (centres undefined), the AC50 is > 100 µM (inactive). This molecule also displayed a half-maximal activity concentration (AC50) under setting [1] of over 100 µM.

With `O=C(NCc1cccnc1)c1ccc(COc2ccc3c(c2)CCC3)o1`, the AC50 is > 100 µM (inactive).

In the case of `O=C(CSc1nc2ccccc2[nH]1)Nc1cccc(S(=O)(=O)N2CCOCC2)c1`, the AC50 was > 100 µM (inactive). Moreover, the AC50 under setting [1] was 33.9 µM.

On to `CC(C)=C(c1ccc(Cl)cc1)c1c(N)ncnc1N`, for which the AC50 was > 100 µM (inactive).

Turning to `CCOC(=O)c1ccc(CC(=O)c2oc3cc(O)ccc3c2C)o1`, the AC50 was > 100 µM (inactive).

With `COc1cccc(OC)c1OCCCOc1cccc2cccnc12`, the AC50 is > 100 µM (inactive).

With `COc1ccc(OCC2c3cc(OC)c(OC)cc3CCN2C(=O)C(C)C)cc1` (centres undefined), the AC50 is > 100 µM (inactive).

In the case of `Cc1ccc(C#N)c(SCc2ccccc2F)n1`, the AC50 is > 100 µM (inactive). This molecule came in with a concentration at half-maximal activity (AC50) under setting [1] of 34.2 µM.

The molecule `CC(NC(=O)c1ccncc1)c1ccc(Cl)cc1Cl` (centres undefined) yielded an AC50 under setting [1] of over 100 µM.

`Cc1ccc(NC(=O)C2CCCN(c3ncnc4c3nc3n4CCCCC3)C2)cc1Cl` (centres undefined) had an AC50 under setting [1] of over 100 µM.

Consider `CCCCC(=O)N1CCN(c2nc3ccc(Br)cc3s2)CC1`, for which the AC50 is > 100 µM (inactive). The molecule also displayed an AC50 under setting [1] of 31 µM.

As for `CCCC(=O)N(CCc1ccc(OC)cc1)Cc1nc2ccccc2c(=O)[nH]1`, the AC50 is > 100 µM (inactive).

As for `O=C(C[n+]1ccn(-c2ccccc2)c1)c1ccc([N+](=O)[O-])cc1`, the AC50 was > 100 µM (inactive).

Take `C[C@@H]1CN([C@@H](C)CO)C(=O)c2cccc(NC(=O)Nc3ccccc3)c2O[C@@H]1CN(C)S(=O)(=O)c1ccc(Cl)cc1`: the AC50 was > 100 µM (inactive). For the same molecule, under setting [1], the AC50 was 37.7 µM.

Regarding `O=C(Nc1ccc(F)c(Cl)c1)C1CC2CCC1C2` (centres undefined), the AC50 under setting [1] was over 100 µM.

In the case of `Cc1nc2ccc(Br)cc2c(=O)n1Cc1cccs1`, the AC50 was > 100 µM (inactive). In addition, the half-maximal activity concentration (AC50) under setting [1] is 50.2 µM.

Consider `NS(=O)(=O)c1cccc(NC(=O)CSc2nnc(-c3ccccc3F)n2C2CC2)c1`, for which the AC50 was > 100 µM (inactive).

For `CCCCSc1nc(N)c(C#N)c(-c2cccs2)c1C#N`, the AC50 was > 100 µM (inactive).

Regarding `Cc1ccc(NC(=O)c2ccc(CSc3ccccn3)cc2)c(O)c1`, the AC50 is > 100 µM (inactive). The molecule further showed a concentration at half-maximal activity (AC50) under setting [1] of 20.9 µM.

In the case of `Cc1ccccc1OCc1nc2ccccc2n1C`, the AC50 was > 100 µM (inactive).

Consider `O=C(COc1cc(F)ccc1[N+](=O)[O-])NCCCc1ccccc1`, for which, under setting [1], the half-maximal activity concentration (AC50) was over 100 µM.

Molecule `Cc1cc(C)cc(NC(=O)c2cccc(NC(=O)c3ccco3)c2)c1` gave an AC50 under setting [1] of 45.6 µM.

As for `C[C@@H]1CN([C@@H](C)CO)C(=O)CCCn2nncc2CO[C@H]1CN(C)C(=O)Nc1ccc(C(F)(F)F)cc1`, the AC50 is > 100 µM (inactive).

Turning to `CC(C)CC#Cc1ccc2c(c1)O[C@@H](CN(C)Cc1ccccn1)[C@H](C)CN([C@H](C)CO)S2(=O)=O`, the AC50 was > 100 µM (inactive).

Consider `Cc1cc(C(=O)c2ccc3ccccc3c2)c(C)o1`, for which the AC50 was > 100 µM (inactive).

As to `CSc1nc(SC(C)C(=O)O)c2c3c(sc2n1)COC(C)(C)C3` (centres undefined), the AC50 was > 100 µM (inactive).

With `O=C(Nc1ccc2c(c1)OCO2)c1ccc([N+](=O)[O-])cc1[N+](=O)[O-]`, the AC50 was > 100 µM (inactive).

Turning to `CC(=O)c1c(C)[nH]c(C(=O)Nc2nc(C)cs2)c1C`, the concentration at half-maximal activity (AC50) under setting [1] is over 100 µM.

For `COc1ccc(CNS(=O)(=O)c2ccc3c(c2)NC(=O)C(C)S3)cc1` (centres undefined), the AC50 was > 100 µM (inactive).

`Cc1cc(Br)ccc1SCC(=O)OCC(=O)NCc1ccco1`: the AC50 was > 100 µM (inactive).

Consider `Cc1ccc(NC(=O)c2c(C)noc2-c2snnc2C)cc1`, for which the AC50 is > 100 µM (inactive).

Under setting [1], `CCOc1ccccc1N1CC(C(=O)Nc2cccc(S(=O)(=O)N3CCCCC3)c2)CC1=O` (centres undefined) registered a half-maximal activity concentration (AC50) of over 100 µM.

Under setting [1], `C[C@@H]1CCCCO[C@H](CN(C)C)[C@H](C)CN([C@H](C)CO)C(=O)c2cc(NC(=O)Nc3cccc4ccccc34)ccc2O1` had an AC50 of over 100 µM.

For `O=C(c1cc(COc2ccc(F)cc2F)on1)N1CCCC(c2ccccc2)C1` (centres undefined), the AC50 was > 100 µM (inactive). The molecule also had an AC50 under setting [1] of 14.5 µM.

For `Cc1nnc2sc(SCC(=O)Nc3ccc(Br)cc3)nn2c1=O`, the concentration at half-maximal activity (AC50) under setting [1] was over 100 µM.

With `CSC1=NCCN1C(=O)Cc1ccc(-c2ccccc2)cc1`, the AC50 was > 100 µM (inactive). In addition, the half-maximal activity concentration (AC50) under setting [1] is 48.3 µM.

`N#Cc1ccc(-c2ccc(C3[C@H]4CNC[C@@H]3N4S(=O)(=O)c3ccc(-c4ccccc4)cc3)cc2)cc1` (some centres undefined): the half-maximal activity concentration (AC50) under setting [1] is over 100 µM.

As for `CC1(C(=O)NS(=O)(=O)c2ccc3c(c2)CCO3)CCN1C(=O)c1ccccc1CCc1ccccc1` (centres undefined), the AC50 is > 100 µM (inactive).

Take `O=C(c1cccc(F)c1)N1CCN(c2ccc([N+](=O)[O-])c3cccnc23)CC1`: the AC50 was > 100 µM (inactive). Moreover, under setting [1], the concentration at half-maximal activity (AC50) is over 100 µM.

Regarding `O=C(COC(=O)C1CC1)Nc1nc(-c2ccc(F)c(F)c2)cs1`, the half-maximal activity concentration (AC50) under setting [1] is over 100 µM.

In the case of `CC(=O)Nc1ccc(NS(=O)(=O)c2ccc(Cl)s2)cc1`, the AC50 is > 100 µM (inactive).

Under setting [1], `COCC#Cc1ccc2c(c1)O[C@@H](CN(C)S(=O)(=O)c1cccc(F)c1)[C@@H](C)CN([C@H](C)CO)S2(=O)=O` came in with an AC50 of 51.3 µM.

Under setting [1], `Cc1noc(C)c1NC(=O)Nc1ccc2c(c1)C(=O)N([C@H](C)CO)C[C@H](C)[C@H](CN(C)C(=O)Nc1ccc3c(c1)OCO3)OCCCC[C@H](C)O2` had an AC50 of over 100 µM.

As to `Oc1ccc2c3c1OC1c4oc5ccccc5c4C[C@@]4(O)[C@@H](C2)N(CC2CC2)CC[C@]314` (some centres undefined), the AC50 is > 100 µM (inactive).

For `O=C(c1cc(COc2c(F)cccc2F)on1)N1C[C@H]2CC[C@H]1C2`, the AC50 was > 100 µM (inactive).

As for `Cc1cccc(-c2ccc([C@@H]3[C@@H](CO)N4CCCCN(S(=O)(=O)c5ccccc5C)C[C@H]34)cc2)c1`, under setting [1], the AC50 came to 48.8 µM.

For the molecule `C=CCn1c(SCc2n[nH]c(=S)n2-c2ccccc2)nnc1-c1ccccc1`, the AC50 was > 100 µM (inactive).

With `Cc1cc(C)c(OCC(=O)OCC(=O)N2CCc3ccccc3C2)c(C)c1`, the AC50 was > 100 µM (inactive). Under setting [1], the AC50 was over 100 µM.

The molecule `O=C(O)c1cc(-c2ccc(Cl)s2)nc2ccccc12` showed a concentration at half-maximal activity (AC50) under setting [1] of over 100 µM.

Under setting [1], `CCOC(=O)C(C)Sc1nc(N2CCOCC2)c2c(c1C#N)CC(C)(C)OC2` (centres undefined) came in with an AC50 of over 100 µM.

For the molecule `CC(C)CN1C(=O)c2ccc(C(=O)Nc3ccncc3)cc2C1=O`, the AC50 is > 100 µM (inactive). Moreover, the concentration at half-maximal activity (AC50) under setting [1] is over 100 µM.

Take `O=C(O)c1ccc(-c2noc(-c3cccc(Cl)c3)n2)cc1`: the AC50 was > 100 µM (inactive).

Turning to `CC(=O)Nc1ccc(S(=O)(=O)Nc2cccc(-c3nc4cc(C)ccc4o3)c2)cc1`, the AC50 under setting [1] is over 100 µM.

Turning to `COc1cc2c(cc1OC)CN(c1ccc([N+](=O)[O-])c(C(F)(F)F)c1)CC2`, the AC50 was > 100 µM (inactive). Under setting [2], this molecule came in with an AC50 of over 100 µM.

`CCN(C(=O)COC(=O)c1ccc([N+](=O)[O-])o1)c1cccc2ccccc12`: the AC50 was > 100 µM (inactive).

As for `COc1ccccc1Cn1c(=S)[nH]c2ccccc2c1=O`, the AC50 was > 100 µM (inactive).

`C[C@H](CO)N1C[C@H](C)[C@@H](CN(C)Cc2ccncc2)OCc2ccccc2-c2c(n(C)c3ccccc23)C1=O` showed an AC50 under setting [1] of 40.2 µM.

As to `Nc1ccccc1Sc1c[nH]c2ccccc12`, under setting [1], the half-maximal activity concentration (AC50) was over 100 µM.

In the case of `CSc1nc2ccc(NC(=O)c3c(-c4ccccc4)noc3C)cc2s1`, the half-maximal activity concentration (AC50) under setting [1] turned out to be 46.5 µM.

`COc1ccc(NC(=O)Nc2cccc3c2O[C@@H](CN(C)S(=O)(=O)c2ccc(Cl)cc2)[C@H](C)CN([C@H](C)CO)C3=O)cc1`: the AC50 was > 100 µM (inactive).

As for `COc1cccc(NC(=O)C2CCC(CNS(=O)(=O)c3cccc4cccnc34)CC2)c1` (centres undefined), the AC50 was > 100 µM (inactive).

In turn, `CCC(C(=O)Nc1ccsc1C(=O)OC)c1ccccc1` (centres undefined) registered an AC50 under setting [1] of 49.2 µM.

Turning to `Cc1nc(N2CCCCC2)sc1C(=O)c1ccc(SCCO)c([N+](=O)[O-])c1`, the AC50 was > 100 µM (inactive). Under setting [1], the AC50 was 34.5 µM.

Turning to `Cc1c(-c2cccc(Cl)c2)nc2ccccc2c1C(=O)N1CCC2(CC1)OCCO2`, the AC50 is > 100 µM (inactive). The molecule also gave a half-maximal activity concentration (AC50) under setting [2] of over 100 µM.

`CCCCc1ccc(S(=O)(=O)Nc2ccc(C)c(NS(C)(=O)=O)c2)cc1` gave a half-maximal activity concentration (AC50) under setting [1] of 49.5 µM.

`Cc1ccc(C(=O)NCC(=O)OCC(=O)Nc2cccc(S(=O)(=O)N3CCCC3)c2)cc1C` gave an AC50 under setting [1] of over 100 µM.

For `C=CCN(CC=C)C(=O)c1ccc2nc(Cc3ccc(OC)c(OC)c3)oc2c1`, the AC50 is > 100 µM (inactive). Also, the half-maximal activity concentration (AC50) under setting [1] is over 100 µM.

For `CN(C)CCCNc1ccc(-c2cc(Nc3cccc(Cl)c3)ncn2)cn1`, the AC50 is > 100 µM (inactive). This molecule had an AC50 under setting [1] of over 100 µM.

For `CCCCNC(=O)c1cc2c(C)cc(C)cc2[nH]1`, the AC50 was > 100 µM (inactive).

Take `CCCn1c(NCc2ccc3c(c2)OCO3)nc2ccccc21`: the AC50 is > 100 µM (inactive). This molecule showed an AC50 under setting [1] of 49.9 µM.

Consider `COc1ccccc1N(C)S(=O)(=O)c1ccc(C(=O)NC(C)c2ccccc2)cc1` (centres undefined), for which the AC50 is > 100 µM (inactive).

The molecule `CSc1nc2ccc(NS(=O)(=O)c3ccc([N+](=O)[O-])cc3)cc2s1` registered an AC50 under setting [1] of under 0.6 µM.

Turning to `COc1cccc(C(=O)NC(C)c2ccc(Br)cc2)c1` (centres undefined), under setting [1], the AC50 is over 100 µM.

In the case of `Cc1ccsc1C(=O)N1CCCC(C(=O)c2cc(F)ccc2F)C1` (centres undefined), the AC50 was > 100 µM (inactive). This molecule also had a half-maximal activity concentration (AC50) under setting [1] of over 100 µM.

With `COc1cc(OC)c(NS(=O)(=O)c2cccc(C(=O)OCC(=O)NCC3CCCO3)c2)cc1Cl` (centres undefined), the half-maximal activity concentration (AC50) under setting [1] was over 100 µM.

Under setting [1], `COc1ccc(CNC(=O)Cc2cn(C)c3ccccc23)c(OC)c1` displayed an AC50 of over 100 µM.

Turning to `O=S1(=O)c2ccc(Br)cc2OCCC2CCCCN21` (centres undefined), the AC50 is > 100 µM (inactive). This molecule registered an AC50 under setting [1] of over 100 µM.

Turning to `Nc1ccccc1Sc1ccc(C(F)(F)F)cc1[N+](=O)[O-]`, the AC50 is > 100 µM (inactive).
